Assay results reported in patent publication US12371428B2 (Exelixis, Inc., priority 2019, dated 2025).

Target: Mer (phospho-Mer, MERTK-transfected 293A cells) (Homo sapiens (Human), UniProt Q12866)
Test: Mer autophosphorylation ELISA in transient transfected 293A cells (Example H)
Format: cell-based
Conditions: cellular activity; Mer autophosphorylation ELISA in transient transfected 293A cells
Summary of the method: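 IC50 from phospho-Mer ELISA of MERTK-transfected 293A cell lysates after 1 h treatment with serially diluted compound in serum-free medium.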

Mer (phospho-Mer, MERTK-transfected 293A cells), sequence (Q12866 21-999): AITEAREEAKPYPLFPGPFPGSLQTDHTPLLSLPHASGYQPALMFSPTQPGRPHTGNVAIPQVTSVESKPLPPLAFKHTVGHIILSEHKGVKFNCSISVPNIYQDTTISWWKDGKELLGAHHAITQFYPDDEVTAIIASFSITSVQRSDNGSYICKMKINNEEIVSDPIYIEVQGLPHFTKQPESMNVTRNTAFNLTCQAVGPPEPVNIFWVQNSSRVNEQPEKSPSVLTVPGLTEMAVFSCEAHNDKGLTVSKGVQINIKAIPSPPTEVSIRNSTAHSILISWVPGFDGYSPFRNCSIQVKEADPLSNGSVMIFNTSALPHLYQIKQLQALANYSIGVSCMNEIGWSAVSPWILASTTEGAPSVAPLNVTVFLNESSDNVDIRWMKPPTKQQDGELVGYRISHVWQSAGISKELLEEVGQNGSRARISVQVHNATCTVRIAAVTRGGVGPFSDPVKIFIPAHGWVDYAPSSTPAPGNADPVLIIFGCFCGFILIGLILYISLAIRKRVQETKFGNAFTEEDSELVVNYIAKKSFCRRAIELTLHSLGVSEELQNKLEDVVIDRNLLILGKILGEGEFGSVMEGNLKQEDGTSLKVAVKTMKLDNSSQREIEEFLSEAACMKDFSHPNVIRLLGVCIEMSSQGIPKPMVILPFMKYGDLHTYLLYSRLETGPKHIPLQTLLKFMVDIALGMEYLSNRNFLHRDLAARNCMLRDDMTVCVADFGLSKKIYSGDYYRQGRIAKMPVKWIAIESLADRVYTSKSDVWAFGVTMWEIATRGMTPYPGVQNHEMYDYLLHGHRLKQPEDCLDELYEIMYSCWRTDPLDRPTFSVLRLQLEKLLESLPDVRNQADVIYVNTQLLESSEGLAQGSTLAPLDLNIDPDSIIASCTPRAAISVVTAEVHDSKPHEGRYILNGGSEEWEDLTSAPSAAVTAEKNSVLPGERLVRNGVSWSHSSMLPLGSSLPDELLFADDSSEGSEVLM

Structure (SMILES)	IC50
COc1cc2nccc(Oc3ccc(NC(=O)c4c(C)ncn(-c5ccc(F)cc5)c4=O)cc3F)c2nc1OC [Compound 98, N-[4-[(6,7-Dimethoxy-1,5-naphthyridin-4-yl)oxy]-3-fluorophenyl]-1-(4-fluorophenyl)-4-methyl-6-oxopyrimidine-5-carboxamide]	< 100 nM
COc1cc2nccc(Oc3ccc(NC(=O)c4cnc(N(C)C)n(-c5ccc(F)cc5)c4=O)cc3F)c2nc1OC [Compound 100, N-[4-[(6,7-Dimethoxy-1,5-naphthyridin-4-yl)oxy]-3-fluorophenyl]-2-(dimethylamino)-1-(4-fluorophenyl)-6-oxopyrimidine-5-carboxamide]	< 100 nM
COc1cc2nccc(Oc3ccc(NC(=O)c4c(C)nc(C)n(-c5ccc(F)cc5)c4=O)cc3F)c2nc1OC [Compound 101, N-[4-[(6,7-Dimethoxy-1,5-naphthyridin-4-yl)oxy]-3-fluorophenyl]-1-(4-fluorophenyl)-2,4-dimethyl-6-oxopyrimidine-5-carboxamide]	< 100 nM
COc1cc2nccc(Oc3ccc(NC(=O)c4c[nH]c(=O)n(-c5ccc(F)cc5)c4=O)cc3F)c2nc1OC [Compound 102, N-[4-[(6,7-Dimethoxy-1,5-naphthyridin-4-yl)oxy]-3-fluorophenyl]-3-(4-fluorophenyl)-2,4-dioxo-1H-pyrimidine-5-carboxamide]	< 100 nM
COc1ccc2c(Oc3ccc(NC(=O)c4cnc(C)c(-c5ccc(F)cc5)c4O)cc3F)ccnc2c1 [Compound 105, N-[3-Fluoro-4-(7-methoxyquinolin-4-yl)oxyphenyl]-5-(4-fluorophenyl)-4-hydroxy-6-methylpyridine-3-carboxamide]	< 100 nM
CCn1cc(C(=O)Nc2ccc(Oc3ccnc4cc(OC)ccc34)c(F)c2)c(=O)c(-c2ccc(F)cc2)c1C [Compound 107, 1-Ethyl-N-[3-fluoro-4-(7-methoxyquinolin-4-yl)oxyphenyl]-5-(4-fluorophenyl)-6-methyl-4-oxopyridine-3-carboxamide]	< 100 nM
COc1ccc2c(Oc3ccc(NC(=O)c4cnc(C)c(-c5ccc(F)cc5)c4O)cc3)ccnc2c1 [Compound 108, 5-(4-Fluorophenyl)-4-hydroxy-N-[4-(7-methoxyquinolin-4-yl)oxyphenyl]-6-methylpyridine-3-carboxamide]	< 100 nM
COc1cnc2c(Oc3ccc(NC(=O)c4cn(C)c(C)c(-c5ccc(F)cc5)c4=O)cc3)ccnc2c1 [Compound 111, 5-(4-Fluorophenyl)-N-[4-[(7-methoxy-1,5-naphthyridin-4-yl)oxy]phenyl]-1,6-dimethyl-4-oxopyridine-3-carboxamide]	< 100 nM
COc1cc2nccc(Oc3ccc(NC(=O)c4cn(CCO)cc(-c5ccc(F)cc5)c4=O)cc3F)c2nc1OC [Compound 117, N-[4-[(6,7-Dimethoxy-1,5-naphthyridin-4-yl)oxy]-3-fluorophenyl]-5-(4-fluorophenyl)-1-(2-hydroxyethyl)-4-oxopyridine-3-carboxamide]	< 100 nM
COc1cc2nccc(Oc3ccc(NC(=O)c4cncc(-c5ccc(F)cc5)c4O)cc3)c2nc1OC [Compound 118, N-[4-[(6,7-Dimethoxy-1,5-naphthyridin-4-yl)oxy]phenyl]-5-(4-fluorophenyl)-4-hydroxypyridine-3-carboxamide]	< 100 nM

Other lines, results leading:

IC50	Structure (SMILES)
< 100 nM	COc1cc2nccc(Oc3ccc(NC(=O)c4cnc(C)n(-c5ccc(F)cc5)c4=O)cc3F)c2nc1OC [Compound 97, N-[4-[(6,7-Dimethoxy-1,5-naphthyridin-4-yl)oxy]-3-fluorophenyl]-1-(4-fluorophenyl)-2-methyl-6-oxopyrimidine-5-carboxamide]
< 100 nM	COc1ccc2c(Oc3ccc(NC(=O)c4cn(C(C)C)c(C)c(-c5ccc(F)cc5)c4=O)cc3F)ccnc2c1 [Compound 106, N-[3-Fluoro-4-(7-methoxyquinolin-4-yl)oxyphenyl]-5-(4-fluorophenyl)-6-methyl-4-oxo-1-propan-2-ylpyridine-3-carboxamide]
< 100 nM	COc1cc2nccc(Oc3ccc(NC(=O)c4cnc(C)c(-c5ccc(F)cc5)c4O)cc3F)c2cc1OC [Compound 109, N-[4-(6,7-Dimethoxyquinolin-4-yl)oxy-3-fluorophenyl]-5-(4-fluorophenyl)-4-hydroxy-6-methylpyridine-3-carboxamide]
< 100 nM	COc1cnc2c(Oc3ccc(NC(=O)c4cn(C)cc(-c5ccc(F)cc5)c4=O)cc3F)ccnc2c1 [Compound 112, N-[3-Fluoro-4-[(7-methoxy-1,5-naphthyridin-4-yl)oxy]phenyl]-5-(4-fluorophenyl)-1-methyl-4-oxopyridine-3-carboxamide]
< 100 nM	COc1ccc2nccc(Oc3ccc(NC(=O)c4cn(C)c(C)c(-c5ccc(F)cc5)c4=O)cc3F)c2n1 [Compound 113, N-[3-Fluoro-4-[(6-methoxy-1,5-naphthyridin-4-yl)oxy]phenyl]-5-(4-fluorophenyl)-1,6-dimethyl-4-oxopyridine-3-carboxamide]
< 100 nM	COc1cc2nccc(Oc3ccc(NC(=O)c4cn(C(C)C)c(C)c(-c5ccc(F)cc5)c4=O)cc3)c2nc1OC [Compound 115, N-[4-[(6,7-Dimethoxy-1,5-naphthyridin-4-yl)oxy]phenyl]-5-(4-fluorophenyl)-6-methyl-4-oxo-1-propan-2-ylpyridine-3-carboxamide]
< 100 nM	CCn1cc(C(=O)Nc2ccc(Oc3ccnc4cc(OC)c(OC)nc34)c(F)c2)c(=O)c(-c2ccc(F)cc2)c1 [Compound 116, N-[4-[(6,7-Dimethoxy-1,5-naphthyridin-4-yl)oxy]-3-fluorophenyl]-1-ethyl-5-(4-fluorophenyl)-4-oxopyridine-3-carboxamide]
